Among the data in patent publication US12187758B2 (ROME Therapeutics, Inc., priority 2022, dated 2025) are IC50 values, retold here.

pIC50: −log10 of the molar value. Some results are limits rather than exact numbers.

Type in all cases: cell-based
Assay [1] in a line: Mitochondria toxicity assay with PC3 cells, in-cell ELISA COX-1. Conditions: 5 days treatment. Here is the method:
(§1) Exemplary compounds were tested for inhibition of expression of mitochondria DNA encoded proteins COX-1 […]. SDH-A (succinate dehydrogenase-A) is a control mitochondria protein encoded by nuclear DNA. Reduction in COX-1 expression indicates off target inhibition of mitochondria DNA synthesis which leads to mitochondrial toxicity. Assay procedures and results are described below.
(§2) PC3 cells were purchased from ATCC and cultured in F-12 Kaighn's modified medium (Hyclone), 10% heat-inactivated fetal bovine serum (Invitrogen), 1% Penicillin-Streptomycin (Invitrogen). PC3 cells were treated with a dose titration of a test compound on 96 well plates for 5 days at 37° C., 5% CO2 in a humidified incubator. The treatment plates are duplicated, one for in-cell ELISA for mitochondria proteins and one for cytotoxicity.
(§3) In-cell ELISA was performed to measure mitochondrial proteins using MitoBiogenesis In-Cell ELISA kit (Abcam) per manufacturer's instruction. The medium was aspirated from the compound treated cells, 100 μl per well of 4% paraformaldehyde (Solarbio) was added and cells were incubated at room temperature for 20 minutes. The cells were washed three times with PBS. 100 μl of 0.5% acetic acid was added per cell, and the cells were incubate at room temperature for 5 minutes. Cells were washed once with PBS. 100 μl per well of Permeabilization Buffer was added, and the cells incubate at room temperature for 30 minutes. The permeabilization buffer was removed and 200 μl per well 2× Blocking Buffer was added and the cells were incubated at room temperature for 2 hours. After removing the Blocking Buffer 100 μl per well of primary antibody to SDH-A or COX-1 was added, and the cells were incubated at 4° C. overnight. The primary antibody solution was removed and cells were washed 3 times with the Wash Buffer. 100 μl per well of AP- and HRP-labelled secondary antibodies was added, and the cells were incubated at room temperature for 1 hour. The cells were then washed 4 times with the Wash Buffer. For SDH-A detection, 100 μl per well AP Development Solution was added, and the cells were incubated at room temperature for 10 minutes. Cells were then read on CLARTO star^plus microplate reader (BMG Labtech) for kinetic readings at 405 nm for 5 minutes. […] The cells were then read on CLARTO star^plus microplate reader (BMG Labtech) for kinetic readings at 600 nm for 15 minutes.
(§4) In the table “A” represents values<1.0 μM; “B” represents values from >1.0 μM to ≤10.0 μM; “C” represents values from >10.0 μM to ≤50.0 μM; “D” represents values from >50.0 μM to ≤100.0 μM; and “E” represents values>100.0 μM.
Background: ELISA stands for enzyme-linked immunosorbent assay.

For assay [2], the system named is SDH-A (succinate dehydrogenase-A). The assay is described as follows: Mitochondria toxicity assay with PC3 cells, in-cell ELISA SDH-A. Conditions: 5 days treatment. Here is the method:
as §1, §2, §3, §4

The test system of assay [3] is PC3 cells. As to the kind of experiment: Mitochondria toxicity assay with PC3 cells, cytotoxicity (Cell Titer Glo). The note with it: Homo sapiens, PC-3, 120 h, 5 days treatment. As to the method:
as §2
For the cytotoxicity assay, the medium from the cell viability plate was removed, 50 μL per well of Cell Titer Glo (Promega, G9683) was added. Then the cells incubated for 30 minutes at room temperature. Luminescence was read by Envision (PerkinElmer 2105).
as §4

With `Nc1ncnn2c([C@H]3C[C@H](O)[C@](CO)(CF)O3)ccc12` [Compound 79, (2R,3S,5R)-5-(4-aminopyrrolo[2,1-f] [1,2,4]triazin-7-yl)-2-(fluoromethyl)-2-(hydroxymethyl) tetrahydrofuran-3-ol], the pIC50 in assay [1], in assay [2] and in assay [3] was less than 4.00 throughout.
On to `Nc1nc(F)nc2c1ncn2[C@@H]1O[C@@](CO)(CF)[C@@H](O)[C@@H]1F` [Compound 84], for which the negative-log IC50 (pIC50) in assay [1] was 4.30 to 5.00; in assay [2], 4.00 to 4.30; in assay [3] it was 4.30 to 5.00.
As for `NC(=O)[C@]1(CO)O[C@@H](n2cc(F)c(N)nc2=O)[C@@H](F)[C@@H]1O` [Compound 138, (2R,3R,4S,5R)-5-(4-amino-5-fluoro-2-oxopyrimidin-1-yl)-4-fluoro-3-hydroxy-2-(hydroxymethyl) oxolane-2-carboxamide], the pIC50 in assay [1], in assay [2] and in assay [3] was less than 4.00 throughout.
`Nc1nc(=O)n([C@@H]2O[C@@](CO)(CI)[C@@H](O)[C@@H]2F)cc1F` [Compound 129, 4-amino-5-fluoro-1-((2R,3S,4R,5R)-3-fluoro-4-hydroxy-5-(hydroxymethyl)-5-(iodomethyl)tetrahydrofuran-2-yl)pyrimidin-2(1H)-one]: the pIC50 in assay [1], in assay [2] and in assay [3] was less than 4.00 throughout.
On to `Nc1nc(=O)n([C@@H]2O[C@@](CO)(C(F)(F)F)[C@@H](O)[C@@H]2O)cc1F` [Compound 95, 4-amino-1-((2R,3S,4S,5R)-3,4-dihydroxy-5-(hydroxymethyl)-5-(trifluoromethyl)tetrahydrofuran-2-yl)-5-fluoropyrimidin-2(1H)-one], for which the pIC50 in assay [1], in assay [2] and in assay [3] was less than 4.00 each time.
Turning to `Cc1cn([C@H]2C[C@H](O)[C@](CO)(N=[N+]=[N-])O2)c(=O)[nH]c1=O` [Compound 30, 1-((2R,4S,5R)-5-azido-4-hydroxy-5-(hydroxymethyl)tetrahydrofuran-2-yl)-5-methylpyrimidine-2,4(1H,3H)-dione], the pIC50 in assay [1], in assay [2] and in assay [3] was less than 4.00 in each case.
For the compound `Nc1nc2c(ncn2[C@@H]2O[C@@](CO)(CF)[C@@H](O)[C@@H]2F)c(=O)[nH]1` [Compound 83, 2-amino-9-((2R,3S,4R,5R)-3-fluoro-5-(fluoromethyl)-4-hydroxy-5-(hydroxymethyl)tetrahydrofuran-2-yl)-1,9-dihydro-6H-purin-6-one], the pIC50 in assay [1], in assay [2] and in assay [3] was 4.30 to 5.00 throughout.
On to `O=c1[nH]c(=O)n([C@@H]2O[C@@](CO)(CCl)[C@@H](O)[C@@H]2F)cc1F` [Compound 163, 1-[(2R,3S,4R,5R)-5-(chloromethyl)-3-fluoro-4-hydroxy-5-(hydroxymethyl)oxolan-2-yl]-5-fluoro-3H-pyrimidine-2,4-dione], for which the pIC50 in assay [1], in assay [2] and in assay [3] was less than 4.00 each time.
As for `NC[C@]1(CO)O[C@@H](n2cc(F)c(N)nc2=O)[C@@H](F)[C@@H]1O` [Compound 139, 4-amino-1-[(2R,3S,4R,5R)-5-(aminomethyl)-3-fluoro-4-hydroxy-5-(hydroxymethyl)oxolan-2-yl]-5-fluoropyrimidin-2-one], the pIC50 in assay [1], in assay [2] and in assay [3] was less than 4.00 throughout.
For `CSC[C@]1(CO)O[C@@H](n2cc(F)c(N)nc2=O)[C@@H](F)[C@@H]1O` [Compound 135, 4-amino-5-fluoro-1-[(2R,3S,4R,5R)-3-fluoro-4-hydroxy-5-(hydroxymethyl)-5-[(methylsulfanyl)methyl]oxolan-2-yl] pyrimidin-2-one], the pIC50 was 5.00 to 6.00 in assay [1], 4.30 to 5.00 in assay [2] and 4.30 to 5.00 in assay [3].
On to `Nc1nc2c(ncn2[C@@H]2O[C@@](CO)(CCl)[C@@H](O)[C@@H]2O)c(=O)[nH]1` [Compound 94, 2-amino-9-[(2R,3S,4S,5R)-5-(chloromethyl)-3,4-dihydroxy-5-(hydroxymethyl)oxolan-2-yl]-1H-purin-6-one], for which the pIC50 in assay [1], in assay [2] and in assay [3] was less than 4.00 throughout.
Turning to `N#C[C@]1(CO)O[C@@H](n2cc(F)c(N)nc2=O)[C@@H](F)[C@@H]1O` [Compound 166], the pIC50 in assay [1], in assay [2] and in assay [3] was less than 4.00 throughout.
As to `Nc1nc(=O)n([C@H]2C[C@H](O)[C@](CO)(CCl)O2)cc1C(F)(F)F` [Compound 71, 4-amino-1-((2R,4S,5R)-5-(chloromethyl)-4-hydroxy-5-(hydroxymethyl)tetrahydrofuran-2-yl)-5-(trifluoromethyl)pyrimidin-2(1H)-one], the pIC50 in assay [1], in assay [2] and in assay [3] was less than 4.00 in each case.
For `CO[C@H]1C[C@H](n2ccc(N)nc2=O)O[C@@]1(CO)CCl` [Compound 54, 4-amino-1-[(2R,4S,5R)-5-(chloromethyl)-5-(hydroxymethyl)-4-methoxyoxolan-2-yl]-3,4-dihydropyrimidin-2-one], the pIC50 in assay [1], in assay [2] and in assay [3] was less than 4.00 throughout.
As to `CC(O)[C@]1(CO)O[C@@H](n2cc(F)c(=O)[nH]c2=O)[C@@H](F)[C@@H]1O` (stereo partly drawn) [Compound 162, 5-fluoro-1-[(2R,3S,4R,5S)-3-fluoro-4-hydroxy-5-(1-hydroxyethyl)-5-(hydroxymethyl)oxolan-2-yl]-3H-pyrimidine-2,4-dione], the pIC50 in assay [1], in assay [2] and in assay [3] was less than 4.00 in each case.
Consider `Nc1ccn([C@H]2C[C@@H](O)[C@](CO)(CCl)O2)c(=O)n1` [Compound 59, 4-amino-1-[(2R,4R,5R)-5-(chloromethyl)-4-hydroxy-5-(hydroxymethyl)oxolan-2-yl] pyrimidin-2-one], for which the negative-log IC50 (pIC50) in assay [1], in assay [2] and in assay [3] was less than 4.00 throughout.
With `CO[C@]1(CO)O[C@@H](n2ccc(N)nc2=O)C[C@@H]1O` [Compound 48, 4-amino-1-((2R,4S,5R)-4-hydroxy-5-(hydroxymethyl)-5-methoxytetrahydrofuran-2-yl)pyrimidin-2(1H)-one], the pIC50 in assay [1] is 5.00 to 6.00; in assay [2] it was 5.00 to 6.00; in assay [3], 4.30 to 5.00.
Consider `Nc1nc(=O)n([C@@H]2O[C@](/C=C\Cl)(CO)[C@@H](O)[C@@H]2F)cc1F` [Compound 132, 4-amino-1-[(2R,3S,4R,5R)-5-(2-chloroethenyl)-3-fluoro-4-hydroxy-5(Z)-(hydroxymethyl)oxolan-2-yl]-5-fluoropyrimidin-2-one], for which the negative-log IC50 (pIC50) in assay [1], in assay [2] and in assay [3] was less than 4.00 in each case.
On to `Nc1nc(F)nc2c1ncn2[C@H]1C[C@H](O)C(CO)(CO)O1` [Compound 10, ((3S,5R)-5-(6-amino-2-fluoro-9H-purin-9-yl)-3-hydroxytetrahydrofuran-2,2-diyl) dimethanol], for which the figures for the pIC50 in assay [1], in assay [2] and in assay [3] were 5.00 to 6.00, 5.00 to 6.00 and 4.30 to 5.00, respectively.
`[N-]=[N+]=N[C@]1(CO)O[C@@H](n2ccc(N)nc2=O)C[C@@H]1O` [Compound 49, 4-amino-1-((2R,4S,5R)-5-azido-4-hydroxy-5-(hydroxymethyl)tetrahydro-furan-2-yl)pyrimidin-2(1H)-one]: the pIC50 in assay [1], in assay [2] and in assay [3] was greater than 6.00 in each case.

As a reminder, the pIC50 is −log10 of the IC50, conventionally taken in molar units. A higher pIC50 goes with a low IC50.
